Assay results from patent US20250263395A1, “COMPOUNDS THAT MEDIATE PROTEIN DEGRADATION AND METHODS OF USE THEREOF” (Monte Rosa Therapeutics AG, priority 2022, published 2025).

How the values were obtained:
CDK2 = CDK2 (Homo sapiens (Human), UniProt P24941); test: CDK2 NanoBiT assay (HiBiT-tagged CDK2 degradation); type: cell-based; settings: HEK293, HEK293 clonal line, C-terminal HiBiT tag on CDK2, LgBiT; 24 hours
Procedure: Example 145. NanoBiT Assay
A HEK293 clonal line with a CRISPR knock-in C-terminal HiBiT tag on CDK2 and stably expressing LgBiT protein was obtained from Promega (Madison, WI). Cells were plated at 5000 cells per well using Multiflo (BioTek) in 384-well white solid bottom plates (Corning, 3570BC) in 25 ul volume in DMEM media (DMEM, high glucose, HEPES, no phenol red (ThermoFisher Scientific, 21063029)) containing 10% FBS (Corning, 35-075-CV), 1% Peniciliin/Streptomycin ((ThermoFisher Scientific, 15140-122), and 1% Endurazine (Nano-Glo Endurazine Live Cell Substrate (Promega, N2571)). Cells were incubated for 16 hours at 37 C, 5% CO2. 75 nL of a compound at 30 μM were dosed into the plate using an Echo® 650 liquid handler (Labcyte). Cells were incubated at 37° C., 5% CO2 for 24 hours and then signal was read on a Pherastar FSX using “LUM plus” optic module.
Analysis was performed in Scinamic (Scinamic, Cambridge, MA). Luminescence response (R) was calculated by the formula: response=100*(S−N)/(P−N) where S is the signal of the well, N and P the mean negative and positive control values respectively of the same plate. The luminescence response was then fitted in Scinamic using a 3-parameter agonist logistic fit (hillslope=1, EC50>0, top/bottom unconstrained).

CRBN-DDB1 = CRBN-DDB1 (Homo sapiens (Human), UniProt Q96SW2); test: CRBN HTRF assay (Cy5-Thalidomide probe displacement); type: binding; settings: CRBN-DDB1 2.5 nM, Cy5-Thalidomide 100 nM, 30 min; Ki from geometric mean IC50 by Cheng-Prusoff
Procedure: Compound activity was monitored in a Homogenous Time-Resolved Fluorescence (HTRF) assay using 1-[5-({2-[2-(2-{[2-(2,6-dioxopiperidin-3-yl)-1,3-dioxo-2,3-dihydro-1H-isoindol-4-yl]oxy}acetamido)ethoxy]ethyl}carbamoyl)pentyl]-3,3-dimethyl-2-[(1E,3E)-5-[(2E)-1,3,3-trimethyl-5-sulfo-2,3-dihydro-1H-indol-2-ylidene]penta-1,3-dien-1-yl]-3H-indol-1-ium-5-sulfonate as a fluorescent probe. Biochemical assays were conducted in Greiner white 384 well HiBase plates (Cat. No 784075-25) in 10 μL total volume. A one pot detection solution of CRBN-DDB1 (2.5 nM), Anti-His Terbium Cryptate Gold (1×, PerkinElmer Cat. #: 61HI2TLB), and Cy5-Thalidomide (100 nM, Tenova Cat.: T52461) was prepared in 20 mM HEPES, 20 mM NaCl, 0.2 mM TCEP, 0.2 mM EDTA, and 0.005% Tween20 was dispensed to each assay plate. Compounds were stored in dry, ambient temperatures at 10 mM. A 10-point, 1:3 dilution series was prepared from 10 mM stock concentrations in Echo-compatible LDV plates. 10 nL of each compound dilution series was dispensed into assays wells using an Echo 650 (Labcyte inc. USA). 10 nL of 10 mM Lenalidomide was transferred into the active-control wells for the assay and 10 nL of DMSO was transferred into the neutral-control wells. The assay was then allowed to incubate for 30 min at ambient temperature after transferring compound. Plate measurements were taken on a Pherastar FSX (BMG Labtech, Germany) using the HTRF Red filter (Ex. 337 nm, em1: 620 nm, em2: 665 nm) (Flashes: 50, Integration time: 60-400 us, Z-height: 10 mm, Ratio-multiplier: 10,000). The HTRF signal was then subsequently normalized to the neutral and active controls. Analysis and IC50 values were derived using KNIME analytics (KNIME Zurich) transformation and fitting within Collaborative Drug Discovery (Collaborative Drug Discovery USA). Ki was derived from the geometric mean of the IC50 values using the Cheng-Prustoff transformation.

Chain of CRBN-DDB1 (Q96SW2 whole entry): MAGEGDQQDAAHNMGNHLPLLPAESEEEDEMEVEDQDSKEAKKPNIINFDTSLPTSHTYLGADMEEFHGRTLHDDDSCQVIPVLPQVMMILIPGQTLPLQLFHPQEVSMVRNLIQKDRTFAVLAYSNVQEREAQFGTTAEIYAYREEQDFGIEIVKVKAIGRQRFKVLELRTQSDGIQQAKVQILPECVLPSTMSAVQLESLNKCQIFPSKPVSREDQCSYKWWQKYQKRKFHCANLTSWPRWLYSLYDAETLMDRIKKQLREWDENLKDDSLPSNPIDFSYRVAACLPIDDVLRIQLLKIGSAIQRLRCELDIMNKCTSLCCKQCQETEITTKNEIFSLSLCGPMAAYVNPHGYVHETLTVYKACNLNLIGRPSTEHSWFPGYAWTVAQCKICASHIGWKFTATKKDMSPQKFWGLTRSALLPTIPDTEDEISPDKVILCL
Chain of CRBN-DDB1 (Q16531 whole entry partner): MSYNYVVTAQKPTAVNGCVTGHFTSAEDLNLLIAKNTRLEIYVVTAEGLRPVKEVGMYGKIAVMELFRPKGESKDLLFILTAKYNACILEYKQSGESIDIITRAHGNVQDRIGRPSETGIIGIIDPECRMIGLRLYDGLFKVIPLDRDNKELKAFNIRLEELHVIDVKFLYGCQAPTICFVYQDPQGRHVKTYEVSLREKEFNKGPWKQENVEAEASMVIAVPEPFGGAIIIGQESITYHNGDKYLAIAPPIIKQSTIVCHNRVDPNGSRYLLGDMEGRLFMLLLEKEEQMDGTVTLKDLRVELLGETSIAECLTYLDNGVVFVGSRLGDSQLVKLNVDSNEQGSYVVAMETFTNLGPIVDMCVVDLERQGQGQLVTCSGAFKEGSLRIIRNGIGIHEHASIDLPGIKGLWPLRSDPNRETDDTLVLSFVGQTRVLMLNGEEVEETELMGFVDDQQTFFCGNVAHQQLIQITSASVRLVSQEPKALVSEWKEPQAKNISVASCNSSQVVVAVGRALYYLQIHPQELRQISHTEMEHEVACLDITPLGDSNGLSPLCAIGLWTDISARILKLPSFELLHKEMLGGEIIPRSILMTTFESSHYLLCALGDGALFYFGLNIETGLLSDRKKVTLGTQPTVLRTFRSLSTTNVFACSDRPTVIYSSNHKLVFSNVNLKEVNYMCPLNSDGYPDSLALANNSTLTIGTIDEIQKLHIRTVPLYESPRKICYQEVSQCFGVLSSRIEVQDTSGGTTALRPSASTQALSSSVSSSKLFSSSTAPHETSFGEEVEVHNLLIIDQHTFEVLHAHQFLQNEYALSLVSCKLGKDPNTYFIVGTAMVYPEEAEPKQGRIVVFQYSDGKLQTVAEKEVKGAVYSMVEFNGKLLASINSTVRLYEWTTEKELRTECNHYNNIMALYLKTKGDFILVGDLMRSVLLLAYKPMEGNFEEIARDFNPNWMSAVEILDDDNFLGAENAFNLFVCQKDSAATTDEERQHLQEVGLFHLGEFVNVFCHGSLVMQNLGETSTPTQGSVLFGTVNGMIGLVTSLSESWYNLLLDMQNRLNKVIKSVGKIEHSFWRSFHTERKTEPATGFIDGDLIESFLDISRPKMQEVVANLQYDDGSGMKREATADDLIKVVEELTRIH

Structure (SMILES) | Dmax (CDK2) [%] | Ki (CRBN-DDB1) [nM]
Cc1cccc(N2CC(OC(=O)NC3CN(c4cc(F)c(C5CCC(=O)NC5=O)c(F)c4)C3)C2)n1 (stereo not shown) [Compound 80, 1-(6-methylpyridin-2-yl)azetidin-3-yl (1-(4-(2,6-dioxopiperidin-3-yl)-3,5-difluorophenyl)azetidin-3-yl)carbamate] | 50 to 80 | ≤ 100
CN(C)C(=O)N1CC[C@@H](OC(=O)NC2CN(c3cc(F)c(C4CCC(=O)NC4=O)c(F)c3)C2)C1 (stereo partly drawn) [Compound 18, (R)-1-(dimethylcarbamoyl)pyrrolidin-3-yl (1-(4-(2,6-dioxopiperidin-3-yl)-3,5-difluorophenyl)azetidin-3-yl)carbamate] | 10 to 50 | ≤ 100
Cc1ccc(N(C)C(=O)N2CC(OC(=O)NC3CN(c4cc(F)c(C5CCC(=O)NC5=O)c(F)c4)C3)C2)c(C)c1 (stereo not shown) [Compound 116, 1-((2,4-dimethylphenyl)(methyl)carbamoyl)azetidin-3-yl (1-(4-(2,6-dioxopiperidin-3-yl)-3,5-difluorophenyl)azetidin-3-yl)carbamate] | 10 to 50 | ≤ 100
CN(C(=O)N1CC(OC(=O)NC2CN(c3cc(F)c(C4CCC(=O)NC4=O)c(F)c3)C2)C1)c1ccccc1Cl (stereo not shown) [Compound 71, 1-((2-chlorophenyl)(methyl)carbamoyl)azetidin-3-yl (1-(4-(2,6-dioxopiperidin-3-yl)-3,5-difluorophenyl)azetidin-3-yl)carbamate] | 50 to 80 | ≤ 100
O=C1CCC(c2c(F)cc(N3CC(NC(=O)OCC4CCCCC4)C3)cc2F)C(=O)N1 (stereo not shown) [Compound 51, cyclohexylmethyl (1-(4-(2,6-dioxopiperidin-3-yl)-3,5-difluorophenyl)azetidin-3-yl)carbamate] | > 80 | ≤ 100
CC1(C)CCC(COC(=O)NC2CN(c3cc(F)c(C4CCC(=O)NC4=O)c(F)c3)C2)CC1 (stereo not shown) [Compound 53, (4,4-dimethylcyclohexyl)methyl (1-(4-(2,6-dioxopiperidin-3-yl)-3,5-difluorophenyl)azetidin-3-yl)carbamate] | > 80 | ≤ 100
CN(C(=O)C12CC(OC(=O)NC3CN(c4cc(F)c(C5CCC(=O)NC5=O)c(F)c4)C3)(C1)C2)c1ccc(Cl)cc1 (stereo not shown) [Compound 129, 3-((4-chlorophenyl)(methyl)carbamoyl)bicyclo[1.1.1]pentan-1-yl (1-(4-(2,6-dioxopiperidin-3-yl)-3,5-difluorophenyl)azetidin-3-yl)carbamate] | 50 to 80 | ≤ 100
Cc1ccc(-c2nnc(NC3CN(c4cc(F)c(C5CCC(=O)NC5=O)c(F)c4)C3)o2)cc1 (stereo not shown) [Compound 99, 3-(2,6-difluoro-4-(3-((5-(p-tolyl)-1,3,4-oxadiazol-2-yl)amino)azetidin-1-yl)phenyl)piperidine-2,6-dione] | > 80 | 100 to 1000
O=C1CC[C@@H](c2c(F)cc(N3CC[C@@H](NC(=O)OCC4CC5(CCC5)C4)C3=O)cc2F)C(=O)N1 [Compound 55, spiro[3.3]heptan-2-ylmethyl ((R)-1-(4-((S)-2,6-dioxopiperidin-3-yl)-3,5-difluorophenyl)-2-oxopyrrolidin-3-yl)carbamate] | 50 to 80 | 100 to 1000
CN(C)C(=O)N1CC(OC(=O)NC2(C)CN(c3cc(F)c(C4CCC(=O)NC4=O)c(F)c3)C2)C1 (stereo not shown) [Compound 14, 1-(dimethylcarbamoyl)azetidin-3-yl (1-(4-(2,6-dioxopiperidin-3-yl)-3,5-difluorophenyl)-3-methylazetidin-3-yl)carbamate] | 10 to 50 | ≤ 100
Cc1cc(N2CC(NC(=O)OC3CN(C(=O)N(C)C4CC4)C3)C2)cc(C)c1C1CCC(=O)NC1=O (stereo not shown) [Compound 86, 1-(cyclopropyl(methyl)carbamoyl)azetidin-3-yl (1-(4-(2,6-dioxopiperidin-3-yl)-3,5-dimethylphenyl)azetidin-3-yl)carbamate] | 10 to 50 | 100 to 1000
